Assay results from patent US5912372A, “Water-miscible esters of monoglycerides having antimicrobial activity” (priority 1997, dated 1999).

Tested on: human respiratory syncytial virus (RSV)
Assay: RSV inhibition assay in LLC-MK2 cells, PBS as diluent
Format: cell-based
Details: compound alone
Experimental: Additional studies were performed to determine the synergistic anti-viral effects of diacetyltartaric acids esters of monoglycerides, lipophilic monoglycerides (MG) and carrageenan. These studies were carried out using […] and PBS as the diluent. The RSV inhibition assay semi-quantitativelydetermines the ability of a test material (antibody or other bioactive compound) to inhibit the infection of monkey kidney cells (LLC-MK2) by human respiratory syncytial virus (RSV). Infected cells are identified using an immunoperoxidase method and counted. The method is performed in a microtiter format and is described briefly below:
LLC-MK2 rhesus monkey kidney cells were obtained from the American Type Culture Collection and were cultured in Eagles modified essential medium (EMEM) supplemented with 10% fetal bovine serum. For RSV inhibition assays, LLC-MK2 cells at 5,000 cells/well were seeded into fibronectin treated microtiter plates and incubated for 3-4 days prior to use in the infectivity reduction assay. […] Plates were then rinsed as above with PBS/CEA, and the number of stained RSV-infected cells (IC) per well determined using an inverted microscope. The number of ICs' in triplicate wells was compared with the number of ICs' of virus control wells (mean of 9) and the percent inhibition (PI) calculated; [PI=1.0-[Mean ICs' per well of test sample/Mean ICs' per well of virus control]. […]

Carrageenan
Enhancement Factor: 1.0
